Assay results as given in article PMC12005787, “Synthetic Lethality of SHP2 and XIAP Suppresses Proliferation and Metastasis in KRAS‐mutant Nonsmall Cell Lung Cancer” (Advanced Science, 2025).

Assays:
[1] = system: SHP2 phosphorylation in HeLa cells; assay: SHP2 phosphorylation in EGF-stimulated HeLa cells (immunoblotting); format: cell-based; details: for effect on EGF-induced phosphorylation of SHP2 (Y542 and Y580) and ERK: pretreatment 2 h, SHP099 20 µM, embelin different concentrations, EGF 10 ng mL^−1 2 h; for effect on the level of SHP2 phosphorylation: 20 µM for 2 h before EGF (10 ng mL^−1)
From the text: Figure 1 Embelin inhibits KRAS‐mutant tumor development. A) Correlation detection between mRNA expression of PTPN11 and KRAS in patients with LUAD (n = 706) using IlluminaHiSeq analysis with data derived from TCGA database. B) Correlation and number at risk of SHP2 expression with the overall survival probability of KRAS mutant lung cancer patients (n = 92) in the TCGA database. C) Protein expression and phosphorylation levels of SHP2 in RAS‐WT, NRAS, HRAS, and KRAS‐mutant cells. D) Effect of 3471 bioactive compounds at 10 µM against SHP2, with Na3VO4 serving as a control. Z’ factor values for 69 plates screened, Z’ = 0.81, S/N = 40.8. E) Binding energy between candidate drugs and SHP2 full‐length domain, catalytic region, and ΔSHP2 domain. F) HeLa cells were pretreated with DMSO, SHP099, or various compounds at 20 µM for 2 h before stimulation with EGF (10 ng mL^−1) for an additional 2 h. Cell lysates were subjected to immunoblotting with SHP2, p‐SHP2, and GAPDH antibodies. Data are from three independent experiments are presented. G) Spearman's correlation coefficient between drug‐related targets and KRAS mRNA in different types of tumors through the TCGA database. H) BCL2, TPO, RAF1, MCL1, MPL, and XIAP mRNA expression levels in LUAD tumors and adjacent tissues through the TCGA database. I) XIAP protein expression in RAS‐WT, NRAS‐mutant, HRAS‐mutant, and KRAS‐mutant cells. J) Effect of candidate drugs (10 µM) on colony formation in A549, NCI‐H2122, and NCI‐H1944 cells.
Figure 6 Embelin disrupts the SHP2 signaling complex in KRAS‐mutant NSCLC cells. A) HeLa cells were pretreated with SHP099 (20 µM) or different concentrations of embelin for 2 h and stimulated with EGF (10 ng mL^−1) for 2 h, the protein expression of RAS/MAPK signaling pathway in HeLa cells was detected. B) After treatment of embelin and SHP099 (10 µM) in NCI‐H2122 and A549 cells for 12 h, cell lysates were collected. One part was used to measure Gab1, Grb2, and SOS1 expression, and the other part underwent IP with SHP2 antibody. Then, binding of Gab1, Grb2, and SOS1 with SHP2 was detected. C) After treatment of embelin and SHP099 (10 µM) for 24 h, the expression of Gab1, p‐Gab1, Grb2, and SOS1 proteins in A549 and NCI‐H2122 cells were detected. […] Co‐localization of these proteins with SHP2 was detected using IF. […]
After given treatment, cells were lysed by ice bath with radio-immunoprecipitation assay (RIPA) buffer containing 1% phenylmethylsulphonyl fluoride (PMSF), and the supernatant was collected by centrifugation, and the protein concentration was subsequently determined using a BCA Protein Assay Kit. […]

NCI‐H2122 cells [2] = assay: Cell cycle assay; format: cell-based, human; details: embelin 15 µM or SHP099 10 µM for 72 h
Description: NCI-H2122 cells treated with given disposal were washed with pre-cooled PBS, fixed
with ice pre-cooled 70% ethanol at 4℃ for 2 h. And then PI staining solution (containing
(§1) RNaseA) was incubated in dark at 37℃ for 30 min. Red fluorescence and light scattering
were detected by flow cytometry at 488 nm. Cell cycle results were analyzed and visualized
using ModFit LT and FlowJo software. […]
(§2) (1 picture or pasted object on this page, not shown here)

NCI‐H2122 cells [3] = assay: Apoptosis detection (Annexin-V-FITC/PI); format: cell-based, human; details: 24 h
Description: (§3) NCI-H2122 cells treated with the given disposal were digested with trypsin, resuspended
(§4) in cold PBS, and centrifuged at room temperature (1000×g for 5 min) to discard the
supernatant. Approximately 100,000 cells were collected and 195 μL of Annexin V-FITC
conjugate was added to gently resuspend the cells and then 5 μL of Annexin V-FITC and 10
μL of propidium iodide (PI) staining solution were added respectively. They were then
incubated at 37 °C for 10-20 min in the dark, placed on ice, and passed through a flow
cytometer (Becton, Dickinson, Calibur, USA) for online detection. […]
as §2

NCI‐H2122 cells [4] = assay: ROS release assay; format: cell-based, human; details: 24 h
Description: incubated with a horseradish peroxidase (HRP)-conjugated secondary antibody at room
temperature for 2 h and then incubated with enhanced chemiluminescence (ECL) solutions for
15 s at room temperature. A fully automated gel imaging system (General Electric Company,
USA) was used for the exposure imaging.
NCI-H2122 cells were inoculated into 96-well plates specialized for high-content cell
imaging, treated with various drugs, fixed with 4% neutral formaldehyde, and sealed with 5%
BSA after permeabilization with 0.05% Triton X-100. Subsequently, the cells were incubated
with the given primary antibody overnight at 4 °C and then with corresponding fluorescent
secondary antibody in dark at room temperature for 1 h. […] (DAPI)
was applied to nuclear staining. Fluorescence images were captured using a high-content
analyzer (Thermo Scientific, USA).
as §3, §4
supernatant. […]
as §1
were detected by flow cytometry at 488 nm. Cell cycle results were analyzed and visualized […]
intracellular ROS levels were detected by flow cytometry (λa = 488 nm, λe = 525 nm). […]
sealed with a DAPI-containing anti-fluorescence quenching sealer for 30 min at room […]

[5] = system: MEK and ERK phosphorylation in NCI‐H2122 and A549 cells; assay: MEK and ERK phosphorylation (western blotting); format: cell-based, human; details: 24 h

Row | Compound | effect on EGF-induced phosphorylation of SHP2 (Y542 and Y580) and ERK [1] | effect on cell cycle (NCI‐H2122 cells [2]) | effect on apoptosis (NCI‐H2122 cells [3]) | effect on ROS release (NCI‐H2122 cells [4]) | effect on MEK and ERK phosphorylation [5] | effect on the level of SHP2 phosphorylation [1]
1 | CC1(N)CCN(c2cnc(-c3cccc(Cl)c3Cl)c(N)n2)CC1 [SHP099] | significantly inhibited these phosphorylation levels | had no effect | promoted apoptosis | promoted ROS release | did not affect MEK phosphorylation in A549 cells | –
2 | O=C1Nc2ccc(I)cc2/C1=C/c1cc(Br)c(O)c(Br)c1 [S2872, GW5074] | – | – | – | – | – | significantly inhibited SHP2 phosphorylation
3 | CCCCCCCCCCCC1=C(O)C(=O)C=C(O)C1=O [Embelin] | significantly inhibited these phosphorylation levels | blocked the G2/M cycle | increased the proportion of early and late apoptotic cells | promoted ROS release | inhibited MEK and ERK phosphorylation | significantly inhibited SHP2 phosphorylation
